Reference: US9783536B2, “Nitrogen-containing heterocyclic compound or salt thereof” (FUJIFILM Corporation, priority 2013, dated 2017)
Where two headings read alike, the source gives them in different places.

Experiments:
human PI3Kα protein = molecular target: T1, human PI3Kα protein (Homo sapiens, UniProt P42336); assay: PI3Kα enzyme assay (ADP-Glo); assay type: biochemical; conditions: read-out: PI3Kα enzyme inhibitory activity
T1 construct: purchased Carna Biosciences, Inc; host or cells: baculovirus expression system
T1 sequence (P42336 whole entry): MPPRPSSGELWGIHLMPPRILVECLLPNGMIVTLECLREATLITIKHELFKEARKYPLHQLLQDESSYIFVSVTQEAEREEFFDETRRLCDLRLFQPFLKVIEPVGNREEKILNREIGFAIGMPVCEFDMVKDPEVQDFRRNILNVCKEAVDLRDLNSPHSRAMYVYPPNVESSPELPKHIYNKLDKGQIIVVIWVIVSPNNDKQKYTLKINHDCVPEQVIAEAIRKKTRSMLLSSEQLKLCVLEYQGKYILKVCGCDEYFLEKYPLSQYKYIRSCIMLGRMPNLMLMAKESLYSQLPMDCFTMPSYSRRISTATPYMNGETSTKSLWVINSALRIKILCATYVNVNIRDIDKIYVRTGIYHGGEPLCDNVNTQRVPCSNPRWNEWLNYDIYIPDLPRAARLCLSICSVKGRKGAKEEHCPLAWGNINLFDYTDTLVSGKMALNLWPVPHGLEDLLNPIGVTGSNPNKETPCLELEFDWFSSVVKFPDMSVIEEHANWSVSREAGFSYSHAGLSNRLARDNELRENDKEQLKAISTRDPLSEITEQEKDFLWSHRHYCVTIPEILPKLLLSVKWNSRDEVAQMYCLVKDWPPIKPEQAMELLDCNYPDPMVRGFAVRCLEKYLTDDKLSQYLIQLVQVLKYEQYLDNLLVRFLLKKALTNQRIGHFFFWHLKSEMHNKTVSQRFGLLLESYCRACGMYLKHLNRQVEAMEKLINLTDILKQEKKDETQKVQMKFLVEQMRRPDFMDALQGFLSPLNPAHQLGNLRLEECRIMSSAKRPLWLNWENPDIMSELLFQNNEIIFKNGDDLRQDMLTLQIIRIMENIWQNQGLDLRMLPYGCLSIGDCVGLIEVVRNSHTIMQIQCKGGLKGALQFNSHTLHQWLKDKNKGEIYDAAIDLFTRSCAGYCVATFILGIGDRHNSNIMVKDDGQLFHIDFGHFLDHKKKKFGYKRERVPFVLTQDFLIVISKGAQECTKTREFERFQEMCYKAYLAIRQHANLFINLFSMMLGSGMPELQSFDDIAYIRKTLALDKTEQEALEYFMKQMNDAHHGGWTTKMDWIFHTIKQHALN
T1 sequence (P27986 whole entry partner): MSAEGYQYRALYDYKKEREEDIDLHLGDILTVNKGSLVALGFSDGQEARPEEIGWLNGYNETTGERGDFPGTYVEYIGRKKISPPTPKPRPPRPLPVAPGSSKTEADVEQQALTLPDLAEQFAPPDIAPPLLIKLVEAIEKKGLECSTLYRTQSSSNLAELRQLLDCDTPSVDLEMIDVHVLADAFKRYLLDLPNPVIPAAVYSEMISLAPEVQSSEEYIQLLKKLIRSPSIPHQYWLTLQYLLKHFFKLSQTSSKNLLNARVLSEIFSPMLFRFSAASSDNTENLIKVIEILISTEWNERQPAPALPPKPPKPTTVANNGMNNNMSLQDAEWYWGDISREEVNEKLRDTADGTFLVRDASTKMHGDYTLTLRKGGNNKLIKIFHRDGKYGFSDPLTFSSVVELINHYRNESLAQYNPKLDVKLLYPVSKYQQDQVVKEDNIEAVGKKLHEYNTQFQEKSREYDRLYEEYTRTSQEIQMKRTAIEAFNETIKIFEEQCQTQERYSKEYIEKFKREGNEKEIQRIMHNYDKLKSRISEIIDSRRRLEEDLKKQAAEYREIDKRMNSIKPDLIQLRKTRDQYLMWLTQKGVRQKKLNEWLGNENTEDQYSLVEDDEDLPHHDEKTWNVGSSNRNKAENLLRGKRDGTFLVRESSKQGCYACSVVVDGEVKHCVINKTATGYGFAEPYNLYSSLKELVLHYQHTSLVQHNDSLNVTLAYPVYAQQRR
How it was run: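 Biotinylated human PI3Kα (baculovirus-expressed, 4.5 nmol/L) pre-incubated 15 min with compound in Tris-HCl pH 7.5, MgCl2, BSA; reaction 60 min at 25° C with 50 μmol/L PIP2 and 100 μmol/L ATP final. ADP quantified by ADP-Glo luminescence; IC50 calculated.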

[1] = molecular target: T2, GST fusion human ERK2 protein (Homo sapiens, UniProt P28482); assay: ERK2 enzyme assay (2); assay type: biochemical; conditions: ERK2 enzyme assay (2); read-out: ERK2 enzyme inhibitory activity (2)
T2 construct: purchased Carna Biosciences, Inc; host or cells: E. coli expression system
T2 sequence (P28482 whole entry, the tested form may be a part): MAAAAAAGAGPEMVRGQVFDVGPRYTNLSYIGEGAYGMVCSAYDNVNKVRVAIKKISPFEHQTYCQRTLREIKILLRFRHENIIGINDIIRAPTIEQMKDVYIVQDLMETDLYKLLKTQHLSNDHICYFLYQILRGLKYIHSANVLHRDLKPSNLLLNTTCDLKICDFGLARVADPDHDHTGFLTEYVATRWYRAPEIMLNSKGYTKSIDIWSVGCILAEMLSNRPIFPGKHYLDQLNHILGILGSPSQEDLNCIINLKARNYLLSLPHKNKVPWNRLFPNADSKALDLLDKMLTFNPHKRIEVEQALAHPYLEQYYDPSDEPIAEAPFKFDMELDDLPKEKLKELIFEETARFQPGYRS
How it was run: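 IC50 values come from mobility-shift measurement of phosphorylated versus unphosphorylated 5-FAM peptide substrate after EDTA quench. Beforehand, compound and 1.25 nmol/L E. coli-expressed GST–human ERK2 stood 15 min at room temperature (pH 7.5), then 1 mmol/L ATP and 4.25 μmol/L substrate (final) were added for 120 min at 25 °C.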

CHO-K1 cells = assay: CHO cell toxicity test; assay type: cell-based, Chinese hamster; conditions: Cricetulus griseus, read-out: IC50 value (concentration at which the number of viable cells was suppressed to 50% or less)
Protocol: In a CHO cell toxicity test, the following was used.
Cell: CHO-K1 cells (derived from Chinese hamster ovary) Test medium: F-12 MEDIUM+FCS (manufactured by Biowest) having a final concentration of 2%
Detection reagent: CELLTITER-GLO™ LUMINESCENT CELL VIABILITY ASSAY (trade name, manufactured by PROMEGA Corporation)
The CHO-K1 cells were seeded in a 96-well microplate for culture at 5,000 cells/well, and cultured in a CO2 incubator (37° C.) for 24 hours. An evaluation compound (final concentration: from 25.00 μmol/L to 0.20 μmol/L, common ratio: […]) was added thereto, followed by culturing for 24 hours, and the number of viable cells was calculated from emission intensity by CELLTITER-GLO™ (trade name, manufactured by PROMEGA Corporation). In the measurement of the emission intensity, VARIOSKAN FLASH (manufactured by Thermo Fisher Scientific Inc.) was used.
Inhibition ratio (%)=100−(A/B)×100
A: Emission intensity in the presence of a test compound
B: Emission intensity in the absence of a test compound

[2] = CHO-K1 cells, 24 hours culture with compound, CellTiter-Glo

SMILES | IC50 (human PI3Kα protein) [nM] | IC50 [1] [nM] | IC50 (CHO-K1 cells; CHO-K1, 24 h) [nM] | IC50 (CHO-K1 cells; [2]) [nM]
CC(C)c1cnnc(Nc2ccc3ncc(-c4cn(C)nc4-c4cncs4)cc3n2)c1 [Example 0583] | < 1000 | < 1000 | ≥ 25000 | 
CC(C)c1cnnc(Nc2ccc3ncc(-c4cnn(CCCN5CCOCC5(C)C)c4)cc3n2)c1 [Example 0657] | < 1000 | < 1000 |  | ≥ 25000
CC(C)c1cnnc(Nc2ccc3ncc(-c4cnn(CCCN5CCC(F)CC5)c4)cc3n2)c1 [Example 0413, 7-(1-(3-(4-Fluoropiperidin-1-yl)propyl)-1H-pyrazol-4-yl)-N-(5-isopropylpyridazin-3-yl)-1,5-naphthyridine-2-amine] | < 1000 | < 1000 |  | ≥ 25000
CC(C)c1cnnc(Nc2ccc3ncc(-c4cn(C)nc4-c4cccnc4)cc3n2)c1 [Example 0515] | < 1000 | < 1000 |  | ≥ 25000
CC(C)c1cnnc(Nc2ccc3ncc(-c4cn(C)nc4CC4CCOCC4)cc3n2)c1 [Example 0773] | < 1000 | < 1000 |  | ≥ 25000
CC(C)c1cnnc(Nc2ccc3ncc(-c4cnn(CCCN5CCCOCC5)c4)cc3n2)c1 [Example 0665] | < 1000 | < 1000 |  | ≥ 25000
CC(C)c1cnnc(Nc2ccc3ncc(-c4cnn(CC(O)CN5CCCC5)c4)cc3n2)c1 (stereo not drawn) [Example 0724, 1-(4-(6-((5-Isopropylpyridazin-3-yl)amino)-1,5-naphthyridin-3-yl)-1H-pyrazol-1-yl)-3-(pyrrolidin-1-yl)propan-2-ol] | < 1000 | < 1000 |  | ≥ 25000
Cc1nn(C)cc1-c1cnc2ccc(Nc3cc(C(C)C)cnn3)nc2c1 [Example 0757, 7-(1,3-dimethyl-1H-pyrazol-4-yl)-N-(5-isopropylpyridazin-3-yl)-1,5-naphthyridine-2-amine] | < 1000 | < 1000 |  | ≥ 25000
Cn1cc(-c2cnc3ccc(Nc4cc(C5CC5)cnn4)nc3c2)c(-c2cccnc2)n1 [Example 0573, N-(5-cyclopropylpyridazin-3-yl)-7-(1-methyl-3-(pyridin-3-yl)-1H-pyrazol-4-yl)-1,5-naphthyridine-2-amine] | < 1000 | < 1000 |  | ≥ 25000
CCn1cc(-c2cnc3ccc(Nc4cc(C(C)C)cnn4)nc3c2)c(-c2cccnc2)n1 [Example 0576] | < 1000 | < 1000 |  | ≥ 25000
CC(C)c1cnnc(Nc2ccc3ncc(-c4cn(C)nc4C4CC4)cc3n2)c1 [Example 0567] | < 1000 | < 1000 |  | ≥ 25000
CC(C)c1cnnc(Nc2ccc3ncc(-c4cnn(CCC(C)N5CCOCC5)c4)cc3n2)c1 (stereo not drawn) [Example 0418, N-(5-isopropylpyridazin-3-yl)-7-(1-(3-morpholinobutyl)-1H-pyrazol-4-yl)-1,5-naphthyridine-2-amine] | < 1000 | < 1000 |  | ≥ 25000
CC(C)c1cnnc(Nc2ccc3ncc(-c4c[nH]nc4-c4cccnc4)cc3n2)c1 [Example 0545] | < 1000 | < 1000 |  | ≥ 25000
COCC1CN(CCCn2cc(-c3cnc4ccc(Nc5cc(C(C)C)cnn5)nc4c3)cn2)CCO1 (stereo not drawn) [Example 0679] | < 1000 | < 1000 |  | ≥ 25000
CC(C)c1cnnc(Nc2ccc3ncc(-c4cnn(CCCN5CCOCC5CO)c4)cc3n2)c1 (stereo not drawn) [Example 0685] | < 1000 | < 1000 |  | ≥ 25000
COCCN(C)CCCn1cc(-c2cnc3ccc(Nc4cc(C(C)C)cnn4)nc3c2)cn1 [Example 0659] | < 1000 | < 1000 |  | ≥ 25000
CC(C)c1cnnc(Nc2ccc3ncc(-c4cnn(CCCN5CC6CC(C5)O6)c4)cc3n2)c1 [Example 0637, 7-(1-(3-(6-Oxa-3-azabicyclo[3.1.1]heptan-3-yl)propyl)-1H-pyrazol-4-yl)-N-(5-isopropylpyridazin-3-yl)-1,5-naphthyridine-2-amine] | < 1000 | < 1000 |  | ≥ 25000
Cc1nn(CCCN2C[C@@H](C)O[C@@H](C)C2)cc1-c1cnc2ccc(Nc3cc(C(C)C)cnn3)nc2c1 [Example 0431] | < 1000 | < 1000 |  | ≥ 25000
Cc1cc(-c2nn(C)cc2-c2cnc3ccc(Nc4cc(C(C)C)cnn4)nc3c2)ccn1 [Example 0738] | < 1000 | < 1000 |  | ≥ 25000
CC(C)c1cnnc(Nc2ccc3ncc(-c4cn(C)nc4CC4CC4)cc3n2)c1 [Example 0781] | < 1000 | < 1000 | ≥ 25000 | 

Further lines, with some results ahead:

IC50 (human PI3Kα protein) [nM] | IC50 [1] [nM] | SMILES | IC50 (CHO-K1 cells; CHO-K1, 24 h) [nM] | IC50 (CHO-K1 cells; [2]) [nM]
< 1000 | < 1000 | CC(C)c1cnnc(Nc2ccc3ncc(-c4cnn(CC(=O)N(C)C)c4)cc3n2)c1 [Example 0549, 2-(4-(6-((5-Isopropylpyridazin-3-yl)amino)-1,5-naphthyridin-3-yl)-1H-pyrazol-1-yl)-N,N-dimethylacetamide] |  | ≥ 25000
< 1000 | < 1000 | CC(C)c1cnnc(Nc2ccc3ncc(-c4cnn(CCCN5CC(NS(C)(=O)=O)C5)c4)cc3n2)c1 [Example 0697] |  | ≥ 25000
< 1000 | < 1000 | COC1CN(CC(Cn2cc(-c3cnc4ccc(Nc5cc(C(C)C)cnn5)nc4c3)cn2)OC)C1 (stereo not drawn) [Example 0812, N-(5-isopropylpyridazin-3-yl)-7-(1-(2-methoxy-3-(3-methoxyazetidin-1-yl)propyl)-1H-pyrazol-4-yl)-1,5-naphthyridine-2-amine] |  | ≥ 25000
< 1000 | < 1000 | CC(C)c1cnnc(Nc2ccc3ncc(-c4cnn(CCCN5CCCC5=O)c4)cc3n2)c1 [Example 0422] |  | ≥ 25000
< 1000 | < 1000 | CC(C)c1cnnc(Nc2ccc3ncc(-c4cnn(C5CN(C)C5)c4)cc3n2)c1 [Example 0490] |  | ≥ 25000
< 1000 | < 1000 | CC(C)c1cnnc(Nc2ccc3ncc(-c4cnn(CCCN5CC(C(=O)N(C)C)C5)c4)cc3n2)c1 [Example 0688] |  | ≥ 25000
< 1000 | < 1000 | CC(C)c1cnnc(Nc2ccc3ncc(-c4cnn(CC5CCOCC5)c4)cc3n2)c1 [Example 0482] |  | ≥ 25000
< 1000 | < 1000 | CC(C)c1cnnc(Nc2ccc3ncc(-c4cnn(CCC5CCN(C)CC5)c4)cc3n2)c1 [Example 0487, N-(5-isopropylpyridazin-3-yl)-7-(1-(2-(1-methylpiperidin-4-yl)ethyl)-1H-pyrazol-4-yl)-1,5-naphthyridine-2-amine] |  | ≥ 25000
< 1000 | < 1000 | CC(=O)N1CC(n2cc(-c3cnc4ccc(Nc5cc(C(C)C)cnn5)nc4c3)cn2)C1 [Example 0443] |  | ≥ 25000
< 1000 | < 1000 | CC(C)c1cnnc(Nc2ccc3ncc(-c4cnn(CCCN5C[C@@H](C)N[C@@H](C)C5)c4)cc3n2)c1 [Example 0439, 7-(1-(3-((3S,5R)-3,5-dimethylpiperazin-1-yl)propyl)-1H-pyrazol-4-yl)-N-(5-isopropylpyridazin-3-yl)-1,5-naphthyridine-2-amine] |  | ≥ 25000
